Assay results taken from publication PMC7767178 (International Journal of Molecular Sciences, 2020).
Converted amounts (≈) assume the structure as drawn. Read-outs that look alike come from different tables or passages of the source. Positions of bridges follow the written chain, without caps; N, C: chain ends. Residues, ends and D or L forms follow the SMILES beside them.

Tests used:
[1] = tested on: A. veronii ACCC61732 biofilm; assay type: cell-based; details: 16× MIC, 24 h, crystal violet
Procedure: Mid-log phase A. veronii ACCC61732 cells (1 × 10^8 CFU/mL, 180 µL) were added into the 96-well plates. […] Effects of peptides on biofilms formation was evaluated by the crystal violet staining as previously described. The untreated bacteria were used as the negative control (A) and fresh TSB medium was used as the blank control (A0). The inhibition effect of peptides on early biofilms was determined by the following equation: Biofilms (%) = [(Apeptides − A0)/(A − A0)] × 100.

A. veronii ACCC61732 [2] = test: Organ injury in peritonitis model, histology; assay type: in vivo, mice; details: peptides 5 μmol/kg, CIP 1 μmol/kg
Procedure: Livers, kidneys, spleens, and lungs were removed from mice at 24 h and five days post treatment to evaluate the organ injury. After washing with PBS, the organs were fixed in 4% paraform-aldehyde for 24 h at 4 °C, dehydrated by a graded series of ethanol (75‒95%), and infiltrated with xylene. The organs were then embedded in paraffin wax, sectioned, and stained with hematoxylin and eosin. Finally, the tissue samples were fixed and observed by the light microscope. The CIP-treated mice served as the positive control and the PBS group served as the negative control.

[3] = tested on: Salmonella typhimurium ATCC14028; assay type: cell-based
[4] = tested on: Pseudomonas aeruginosa and Gram-positive bacteria such as Staphylococcus aureus and S. hyicus; test: MIC, range over strains; assay type: cell-based; details: range over the strains of Table 2
Description: All experiments were repeated three times.

A. veronii ACCC61732 [5] = assay type: physicochemical; details: MIC against A. veronii ACCC61732; for MIC after treatment at 4 °C: 1 h at 4 °C; for MIC after treatment at 20 °C: 1 h at 20 °C; for MIC after treatment at 40 °C: 1 h at 40 °C; for MIC after treatment at 60 °C: 1 h at 60 °C; for MIC after treatment at 80 °C: 1 h at 80 °C
Procedure: The thermal stability of peptides was determined after treatment for 1 h at different temperatures (4, 20, 40, 60, 80, and 100 °C). The relative antibacterial activity of peptides against A. veronii ACCC61732 was determined by the MIC assay.

A. veronii ACCC61732 [6] = test: pH stability, MIC read-out; assay type: physicochemical; details: MIC against A. veronii ACCC61732; for MIC after treatment at pH 10: glycine-NaOH buffer pH 10.0, 3 h; for MIC after treatment at pH 6: sodium phosphate buffer pH 6.0, 3 h; for MIC after treatment at pH 8: tris-HCl buffer pH 8.0, 3 h
Procedure: To evaluate pH stability, peptides were dissolved in glycine-HCl buffer (pH 2.0), sodium acetate buffer (pH 4.0), sodium phosphate buffer (pH 6.0), tris-HCl buffer (pH 8.0), or glycine-NaOH buffer (pH 10.0) and treated for 3 h. The MIC values of peptides against A. veronii ACCC61732 were measured as described above.

A. veronii ACCC61732 [7] = details: 3 h, MIC against A. veronii ACCC61732; for MIC after physiological salt 50 mM: NaCl 50 mM; for MIC after physiological salt 100 mM: NaCl 100 mM
Procedure: Similarly, salt stability of peptides was determined after a 3 h-incubation in different NaCl solutions (50, 100, 200, 300, 400, and 500 mM). […] The activity of peptides against A. veronii ACCC61732 was determined as described above. The untreated peptides were used as the positive control and buffers alone were used as the negative control. All assays were conducted in triplicate.

[8] = 60 min, 200 μg/mL peptide, 37 °C, inhibition zone against A. veronii ACCC61732
Procedure: Briefly, a final concentration of 200 μg/mL peptide was incubated in SGF and SIF at 37 °C. At different time intervals, an aliquot of 20 μL mixture was taken and the activity of peptides was tested against A. veronii ACCC61732 by the inhibition zone assay. […] in PBS was used as the positive control; SGF and SIF were used as negative controls.

RAW 264.7 cells = test: Cytotoxicity, MTT; assay type: cell-based; details: 24 h
Procedure: To determine the cytotoxicity of peptides, RAW 264.7 cells (2.5 × 10^4 cells/well) were seeded into 96-well plates and incubated for 24 h. […] The cells were dyed with 3-(4,5-dimethyl-2-thiazolyl)-2,5-diphenyl-2-H-tetrazolium bromide (MTT) (5 mg/mL) for 4 h, incubated with dimethyl sulfoxide (DMSO), and measured at 570 nm. PBS was used as controls. The cell survival rate was calculated by the equation: Survival rate (%) = (Abspeptide/AbsPBS) × 100 [25].

A. veronii ACCC61732 [9] = test: Outer membrane permeabilization, NPN assay; assay type: cell-based; details: NPN fluorescence, 1×–4× MIC
Procedure: The outer membrane permeabilization abilities of peptides were determined using the fluorescent NPN assay. Mid-log phase A. veronii ACCC61732 was collected by centrifugation, washed twice, and then suspended in N-2-hydroxyethylpiperazine-n-2-ethane sulfonic acid (HEPES) buffer (pH 7.4) to an OD600nm = 0.4. […] Fluorescence intensity was recorded until no further increase with a microplate reader (excitation/emission, 328/438 nm).

A. veronii ACCC61732 [10] = test: SEM morphology; assay type: cell-based; details: 4× MIC, 2 h
Procedure: MDR A. veronii ACCC61732 cells were cultured in MHB at 37 °C (250 rpm) until the mid-log phase of growth, harvested by centrifugation, and diluted with 0.01 M PBS (pH 7.4) to 0.5–5 × 10^8 CFU/mL. […] For SEM, the samples were harvested (5000× g, 5 min) and fixed with 2.5% glutaraldehyde at 4 °C overnight. The cells were dehydrated for 10 min in a graded ethanol series (50%, 70%, 90%, and 100%) and transferred to a mixture of 100% ethanol, tertiary butanol, and absolute tertiary butanol (v:v = 1:1) for 15 min. Finally, the specimens were dehydrated in a critical point dryer with liquid CO2, coated with gold–palladium, and observed using a QUANTA200 (FEI, Philips, Amsterdam, Netherlands).

pepsin = details: pH 2
proteinase K = proteinase K (Parengyodontium album, UniProt P06873); details: proteinase K 40 mAU/mg, pH 7.0, peptide:enzyme 10:1 (w/w); MIC against A. veronii ACCC61732; triplicate
[11] = Salmonella typhimurium ATCC14028, broth dilution, 37 °C, 16–18 h, three experiments

Sequence of proteinase K (P06873 106-384): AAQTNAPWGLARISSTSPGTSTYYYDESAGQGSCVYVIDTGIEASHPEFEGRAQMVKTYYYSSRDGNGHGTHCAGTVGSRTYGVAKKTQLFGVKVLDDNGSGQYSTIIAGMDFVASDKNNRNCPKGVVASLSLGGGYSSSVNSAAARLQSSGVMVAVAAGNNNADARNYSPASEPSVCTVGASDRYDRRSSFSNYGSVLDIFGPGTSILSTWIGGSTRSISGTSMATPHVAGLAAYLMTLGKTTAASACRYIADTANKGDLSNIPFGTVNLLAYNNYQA

| SMILES | effect on injury of liver, spleen, kidney and lung (A. veronii ACCC61732 [2]) | MIC ([3]; ATCC14028) [µM] | MIC [3, 11] [µg/mL] | MIC after treatment at 4 °C (A. veronii ACCC61732 [5]) [µg/mL] | MIC after treatment at 20 °C (A. veronii ACCC61732 [5]) [µg/mL] | MIC after treatment at 40 °C (A. veronii ACCC61732 [5]) [µg/mL] | MIC after treatment at 60 °C (A. veronii ACCC61732 [5]) [µg/mL] | MIC after treatment at 80 °C (A. veronii ACCC61732 [5]) [µg/mL] | MIC after treatment at pH 10 (A. veronii ACCC61732 [6]) [μg/mL] | MIC after treatment at pH 6 (A. veronii ACCC61732 [6]) [μg/mL] | MIC after treatment at pH 8 (A. veronii ACCC61732 [6]) [μg/mL] | MIC after physiological salt 50 mM (A. veronii ACCC61732 [7]) [μg/mL] | MIC after physiological salt 100 mM (A. veronii ACCC61732 [7]) [μg/mL] | ability to penetrate the outer membrane (A. veronii ACCC61732 [9]) | further results |
| --- | --- | --- | --- | --- | --- | --- | --- | --- | --- | --- | --- | --- | --- | --- | --- |
| O=C(O)c1cn(C2CC2)c2cc(N3CCNCC3)c(F)cc2c1=O [CIP, ciprofloxacin, reference compound] | weak therapeutic effect | – | – | – | – | – | – | – | – | – | – | – | – | – | inhibition of early biofilm [1]: 70.75% |
| CC(C)[C@H]1NC(=O)CNC(=O)[C@@H](CC(N)=O)NC(=O)[C@@H](CCCNC(=N)N)NC(=O)[C@@H](Cc2ccc(O)cc2)NC(=O)[C@@H](C(C)C)NC(=O)[C@H](NC(=O)[C@H](NC(=O)[C@@H](CC(N)=O)NC(=O)[C@@H](Cc2c[nH]c3ccccc23)NC(=O)[C@@H](C)NC(=O)[C@@H](Cc2ccccc2)NC(=O)CN)C(C)C)CSSC[C@H](C(=O)N[C@H](Cc2c[nH]cn2)C(=O)N[C@H](CCCNC(=N)N)C(=O)N[C@H](CCCNC(=N)N)C(=O)N[C@H](C)C(=O)N[C@H](CC(N)=O)C(N)=O)NC(=O)[C@@H](C(C)C)NC(=O)[C@@H](CCCNC(=N)N)NC1=O [DN6NH2] | remarkably alleviated the injury of the liver and spleen | 3.23 | 8 | 4 (≈ 1.62 µM) | 4 (≈ 1.62 µM) | 4 (≈ 1.62 µM) | 4 (≈ 1.62 µM) | 4 (≈ 1.62 µM) | 4 | 4 | 4 | 4 | 4 | higher ability to penetrate the outer membrane than N6NH2 | MICs against Pseudomonas aeruginosa and Gram-positive bacteria such as S. aureus and S. hyicus [4]: 1.62 to 6.46 µM; MIC after physiological salt 200 mM (A. veronii ACCC61732 [7]; NaCl 200 mM): 4 μg/mL; MIC after physiological salt 300 mM (A. veronii ACCC61732 [7]; NaCl 300 mM): 4 μg/mL; MIC after physiological salt 400 mM (A. veronii ACCC61732 [7]; NaCl 400 mM): 4 μg/mL; MIC after physiological salt 500 mM (A. veronii ACCC61732 [7]; NaCl 500 mM): 4 μg/mL; antibacterial activity after treatment in SGF [8]: higher antibacterial activity than N6NH2 and other analogs; cell survival rate at low concentrations (RAW 264.7 cells): over 100%; cells producing filamentous substances (A. veronii ACCC61732 [10]): over 50%; MIC after pepsin treatment (pepsin): retained the antibacterial activity |
| CC(C)[C@@H]1NC(=O)CNC(=O)[C@H](CC(N)=O)NC(=O)[C@H](CCCNC(=N)N)NC(=O)[C@H](Cc2ccc(O)cc2)NC(=O)[C@H](C(C)C)NC(=O)[C@@H](NC(=O)[C@@H](NC(=O)[C@H](CC(N)=O)NC(=O)[C@H](Cc2c[nH]c3ccccc23)NC(=O)[C@H](C)NC(=O)[C@H](Cc2ccccc2)NC(=O)CN)C(C)C)CSSC[C@@H](C(=O)N[C@@H](Cc2cnc[nH]2)C(=O)N[C@@H](CCCNC(=N)N)C(=O)N[C@@H](CCCNC(=N)N)C(=O)N[C@@H](C)C(=O)N[C@@H](CC(N)=O)C(N)=O)NC(=O)[C@H](C(C)C)NC(=O)[C@H](CCCNC(=N)N)NC1=O [N6NH2] | remarkably alleviated the injury of the liver and spleen | – | 4 | 4 (≈ 1.62 µM) | 4 (≈ 1.62 µM) | 4 (≈ 1.62 µM) | 4 (≈ 1.62 µM) | 4 (≈ 1.62 µM) | 4 | 4 | 4 | 4 | 4 | – | MIC after treatment at pH 2 (A. veronii ACCC61732 [6]; glycine-HCl buffer pH 2.0, 3 h): 4 μg/mL; MIC after treatment at pH 4 (A. veronii ACCC61732 [6]; sodium acetate buffer pH 4.0, 3 h): 4 μg/mL; MIC after proteinase K treatment (proteinase K): > 128 µg/mL |
| CC(C)[C@@H]1NC(=O)CNC(=O)[C@H](CC(N)=O)NC(=O)[C@H](CCCNC(=N)N)NC(=O)[C@H](Cc2ccc(O)cc2)NC(=O)[C@H](C(C)C)NC(=O)[C@@H](NC(=O)[C@@H](NC(=O)[C@H](CC(N)=O)NC(=O)[C@H](Cc2c[nH]c3ccccc23)NC(=O)[C@H](C)NC(=O)[C@H](Cc2ccccc2)NC(=O)CN)C(C)C)CSSC[C@@H](C(=O)N[C@@H](Cc2c[nH]cn2)C(=O)N[C@@H](CCCNC(=N)N)C(=O)N2CCC[C@H]2C(=O)N[C@@H](C)C(=O)N[C@@H](CC(N)=O)C(N)=O)NC(=O)[C@H](C(C)C)NC(=O)[C@H](CCCNC(=N)N)NC1=O [N6PNH2] (H-GFAWNVCVYRNGVRVCHRPAN-NH2; disulfide 7-16 (inferred)) | worst therapeutic effect | 6.62 | 16 | – | – | – | – | – | – | – | – | – | – | – | – |
| CC(C)[C@H](N)C(=O)N[C@@H](Cc1ccccc1)C(=O)N[C@@H](C)C(=O)N[C@@H](Cc1c[nH]c2ccccc12)C(=O)N[C@@H](CC(N)=O)C(=O)N[C@H](C(=O)N[C@H]1CSSC[C@@H](C(=O)N[C@@H](Cc2c[nH]cn2)C(=O)N[C@@H](CCCNC(=N)N)C(=O)N[C@@H](CCCNC(=N)N)C(=O)N[C@@H](C)C(=O)N[C@@H](CC(N)=O)C(N)=O)NC(=O)[C@H](C(C)C)NC(=O)[C@H](CCCNC(=N)N)NC(=O)[C@H](C(C)C)NC(=O)[C@H](C(C)C)NC(=O)[C@H](CC(N)=O)NC(=O)[C@H](CCCNC(=N)N)NC(=O)[C@H](Cc2ccc(O)cc2)NC(=O)[C@H](C(C)C)NC1=O)C(C)C [V112N6NH2] (H-VFAWNVCVYRNVVRVCHRRAN-NH2; disulfide 7-16 (inferred)) | significantly less damaged | 6.25 | 16 | – | – | – | – | – | – | – | – | – | – | best ability to penetrate the outer membrane | – |
